Data: patent publication US7812014B2, “Bicyclic 6-alkylidene-penems as β-lactamase inhibitors” (priority 2002, dated 2010)
Counter-ions that a name gives are not always drawn. Like-named read-outs stand apart in the source and are kept apart here.

What was measured:
[1] = target: class A β-lactamase TEM-1 (Escherichia coli, UniProt P62593); experiment: IC50 determination, β-lactamase inhibition (nitrocefin, spectrophotometric); format: biochemical, E. coli; details: enzyme 4.3 nM; 10 minutes preincubation at 25° C.; nitrocefin 50 μg/ml; pH 7.0
Experimental: (§1) IC50 Determination for the Penem Inhibitor
(§2) β-Lactamase inhibitory activity of the penem inhibitors was determined spectrophotometrically as described by Bush et al., [Bush, K., Macalintal, C., Rasmussen, B. A., Lee, V. and Yang, Y. Antimicrobial Agents and Chemotherapy 1993, 37, 851]. Homogeneously purified class A β-lactamases TEM-1 from E. coli and Imi-1 from Enterobacter cloacae, class B enzyme CcrA from Bacteroides fragilis and class C enzyme AmpC from Enterobacter cloaca were employed in the assay. The enzyme concentrations for TEM-1, Imi-1, CcrA and AmpC were 4.3, 7.1, 1.2 and 2.1 nM, respectively. A wide range of inhibitor concentrations were prepared in 50 mM PO4, pH 7.0 to include the possible IC50 values. The substrate used to initiate the enzyme reaction was nitrocefin at 50 μg/ml in the same buffer as the inhibitor. Initially the enzyme and inhibitor (20 μl each) were preincubated for 10 minutes at 25° C. prior to the addition of 160 μl volume of nitrocefin. Initial rates of hydrolysis were monitored for 5 minutes at 495 nm using a Molecular Devices Spectra Max 250 with kinetic protocol of SoftMax Program. Readings from the Spectra Max 250 were exported and transferred to Microsoft Excel. The percent of inhibition of each inhibitor concentration was calculated based on the control enzyme activity. The inhibitor concentration that caused a 50% reduction in the enzymatic activity (IC50) was determined graphically.

class C enzyme AmpC = class C enzyme AmpC (Enterobacter cloacae, UniProt P05364); experiment: biochemical; set-up: species or system Enterobacter cloaca
Experimental: as §1, §2

[2] = system: Clinical isolates that have been adapted to cause infection in mice; experiment: In vivo antibacterial protection, 7 day survival of infected mice; set-up: species or system mice strain CD-1
From the text: In Vivo Antibacterial Protection
Female mice strain CD-1, approximately 18-22 grams, were received from Charles River Laboratories and quarantined 7 days prior to use. In addition, mice may be rendered neutropenic using cytoxan.
Clinical isolates that have been adapted to cause infection in mice, are used in the experiment, including infections with strains of E. coli, K. pneumoniae, M. morganii, E. cloacae, S. marcescens, C. freundii, staphylococci, streptococci, P. aeruginosa and N. gonorrhoeae.
Mice are challenged by injecting 0.5 ml intraperitoneally or 0.05 ml intranasally of a predetermined bacterial inoculum suspended in broth, saline or hog gastric mucin (supplemented with dried bovine hemoglobin for N. gonorrhoeae). […] Antibacterial doses (dose concentration prepared by two fold serial dilutions of the antibiotic) are dissolved or suspended in 0.2% aqueous agar or methocel, phosphate buffered saline or an adjuvant are administered orally, subcutaneously or intravenously in the following manner: • a) Orally or subcutaneously: Dose volume of 0.5 ml administered ½ hr after infection. A second dose may be administered 3 hr. after infection for treatment of infections with more virulent organisms. • b) Intravenously: Dose volume of 0.2 ml, administered ½ hr. after infection. For the treatment of infections with more virulent organisms, more doses, up to 48 hr may be administered. (Intravenous dosing will not exceed 3 doses/24 hr period.) • c) Oral pretreatment: Under special circumstances, the pH of the stomach needs to be adjusted in order to increase the gastric stability of the antibiotic. For this purpose, 0.5 ml of phosphate buffered saline (pH7.8, 0.06M) (or specific approved adjuvant) is administered orally ½ hr after infection, followed 5 minutes later by 0.5 ml of antibiotic (also orally) contained in phosphate buffered saline (pH7.8, 0.06M). Animal Species
A detailed explanation as to the number of animals needed for the determination of in vivo efficacy follows: • A) Novel antibiotics are tested at 5 different dose levels with 5 mice per dose level at each of three routes of administration (oral, subcutaneous and intravenous). […] This would require 25 mice/route with 3 routes/antibiotic or 75 mice per novel compound tested. One to two novel antibiotics will be tested per experiment (75-150 mice) • B) The effectiveness of the new compound must be compared to that of a standard, or antibiotic of known effectiveness. Known or previously tested antibiotics are tested at 5 dose levels with 5 mice per dose level by a single route of administration, for a total of 25 mice/antibiotic. Usually 3-6 antibiotics will be tested per experiment. (75-150 mice). • C) Untreated controls—In each of the above tests, untreated animals are infected with 3 different concentrations of bacterial inoculum with 10 mice per concentration (30 mice total in each and every test). These untreated controls are used to determine and maintain the infection level between 10-100 LD50s as required for test to test comparison and validity. Determination of Protective Effects of Antibacterial Agents:
The protective effects of the antibacterial agent(s) are measured by the survival of the infected untreated as compared to the treated animals. […] A census of survivors is taken twice daily and at that time dead as well as moribund animals are removed. […] The test is performed three times on separate days to provide a statistically valid number of animals and to minimize variation in test results on a day to day and test to test basis.

[3] = target: class A β-lactamase Imi-1 (Enterobacter cloacae, UniProt Q46991); experiment: IC50 determination, β-lactamase inhibition (nitrocefin, spectrophotometric); format: biochemical
Experimental: as §1, §2

class B enzyme CcrA = class B enzyme CcrA (Bacteroides fragilis, UniProt P25910); experiment: as above; format: biochemical
Experimental: as §1, §2

[4] = enzyme 2.1 nM, 10 minutes preincubation at 25° C., nitrocefin 50 μg/ml, pH 7.0, read-out: IC50 (nM) Class C AmpC
[5] = enzyme 7.1 nM, 10 minutes preincubation at 25° C., nitrocefin 50 μg/ml, pH 7.0, read-out: IC50 (nM) Class A Imi
[6] = enzyme 1.2 nM, 10 minutes preincubation at 25° C., nitrocefin 50 μg/ml, pH 7.0, read-out: IC50 (nM) Class B Ccr
[7] = Mus musculus, 168 h, Ratio of Piperacillin vs. Inhibitor 4:1, read-out: ED50
[8] = Mus musculus, 168 h, Ratio of Piperacillin vs. Inhibitor not given, read-out: ED50

class C enzyme AmpC, sequence (P05364 21-381): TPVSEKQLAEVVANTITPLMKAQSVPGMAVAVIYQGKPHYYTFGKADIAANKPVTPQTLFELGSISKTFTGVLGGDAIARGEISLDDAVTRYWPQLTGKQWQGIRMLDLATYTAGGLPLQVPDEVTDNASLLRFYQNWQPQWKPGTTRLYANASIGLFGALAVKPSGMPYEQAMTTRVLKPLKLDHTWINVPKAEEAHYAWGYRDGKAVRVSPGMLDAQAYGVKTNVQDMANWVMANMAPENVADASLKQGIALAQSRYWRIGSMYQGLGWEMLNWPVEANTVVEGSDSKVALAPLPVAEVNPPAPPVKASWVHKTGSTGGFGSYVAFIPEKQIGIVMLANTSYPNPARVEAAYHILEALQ
class B enzyme CcrA, sequence (P25910 19-249): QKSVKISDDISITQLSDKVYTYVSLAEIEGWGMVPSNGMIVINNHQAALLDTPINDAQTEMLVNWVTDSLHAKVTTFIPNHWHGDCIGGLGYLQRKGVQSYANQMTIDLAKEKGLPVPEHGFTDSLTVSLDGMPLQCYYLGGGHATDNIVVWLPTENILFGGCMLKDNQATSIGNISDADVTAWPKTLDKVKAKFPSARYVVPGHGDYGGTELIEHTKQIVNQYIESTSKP
class A β-lactamase Imi-1, sequence (Q46991 28-292): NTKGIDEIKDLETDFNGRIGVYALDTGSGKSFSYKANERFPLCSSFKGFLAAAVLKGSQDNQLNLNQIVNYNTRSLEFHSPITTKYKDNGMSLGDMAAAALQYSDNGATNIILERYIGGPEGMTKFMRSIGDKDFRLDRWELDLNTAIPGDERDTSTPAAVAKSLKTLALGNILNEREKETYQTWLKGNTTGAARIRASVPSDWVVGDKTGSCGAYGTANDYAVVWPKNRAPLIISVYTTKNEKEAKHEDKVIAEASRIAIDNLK
class A β-lactamase TEM-1, sequence (P62593 24-286 limits assumed): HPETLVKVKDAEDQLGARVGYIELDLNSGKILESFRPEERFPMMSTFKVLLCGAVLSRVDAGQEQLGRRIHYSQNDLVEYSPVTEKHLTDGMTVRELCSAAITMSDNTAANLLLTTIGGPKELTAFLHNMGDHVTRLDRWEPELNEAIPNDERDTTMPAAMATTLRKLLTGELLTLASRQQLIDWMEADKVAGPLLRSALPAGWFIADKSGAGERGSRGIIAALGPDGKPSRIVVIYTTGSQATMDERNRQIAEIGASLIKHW

Row | SMILES | melting point | IC50 [1] [nM] | IC50 (class C enzyme AmpC; [4]) [nM] | ED50 ([2]; Mus musculus, 168 h, Ratio of Piperacillin vs. Inhibitor 2:1, read-out: ED50) [mg/kg] | IC50 [3, 5] [nM] | IC50 (class B enzyme CcrA; [6]) [nM] | IC50 (class C enzyme AmpC) [nM] | ED50 [2, 7] [mg/kg] | ED50 [2, 8] [mg/kg] | IC50 (class B enzyme CcrA) [nM] | IC50 (class C enzyme AmpC; read-out: IC50 (nM) Class C AmpC, pH 7) [nM] | ED50 ([2]; Ratio of Piperacillin vs. Inhibitor not given) [mg/kg] | IC50 [3] [nM]
1 | CN1Cc2nc(/C=C3/C(=O)N4C(C(=O)O)=CS[C@H]34)cn2CC1=O (as salt: sodium) [Example 10, (5R),(6Z)-6-(7-Methyl-6-oxo-5,6,7,8-tetrahydro-imidazo[1,2-a]pyrazin-2-ylmethylene)-7-oxo-4-thia-1-aza-bicyclo[3.2.0]hept-2-ene-2-carboxylic acid sodium salt] | 115 to 117 °C (dec.) | – | – | – | – | – | – | – | – | – | – | – | –
2 | O=C(O)C1=CS[C@@H]2/C(=C\c3cc4c(s3)CCN(Cc3ccccc3)C4)C(=O)N12 [Example 1, (5R,6Z)-6-[(5-benzyl-4,5,6,7-tetrahydrothieno[3,2-c]pyridin-2-yl)methylene]-7oxo-4-thia-1-azabicyclo[3.2.0]hept-2-ene-2-carboxylic acid] | 198 °C | 4.2 | 12 | 32 to 64 | 2.1 | 260 | – | – | – | – | – | – | –
3 | O=C([O-])C1=CS[C@@H]2/C(=C\c3cc4n(n3)CCSC4)C(=O)N12.[Na+] [Example 11, (5R)(6Z)-6-(6,7-Dihydro-4H-pyrazolo[5,1-c][1,4]thiazin-2-ylmethylene)-7-oxo-4-thia-1-azabicyclo[3.2.0]hept-2-ene-2-carboxylic acid, sodium salt] | – | 1 | – | – | 18 | 61 | 1.2 | 13.9 | – | – | – | – | –
4 | O=C([O-])C1=CS[C@@H]2/C(=C\c3cc4n(n3)CSC4)C(=O)N12.[Na+] [Example 12, (5R)(6Z)-7-Oxo-6-(4H-5-thia-1,6a-diazapentalen-2-ylmethylene)-4-thia-1-azabicyclo[3.2.0]hept-2-ene-2-carboxylic acid, sodium salt] | – | 1.4 | – | – | 56 | 110 | 1.5 | 20 | – | – | – | – | –
5 | O=C([O-])C1=CS[C@@H]2/C(=C\c3cn4c(n3)CSC4)C(=O)N12.[Na+] [Example 13, (5R)(6Z)-6-(7H-Imidazo[1,2-c]thiazol-2-ylmethylene)-7-oxo-4-thia-1-azabicyclo[3.2.0]hept-2-ene-2-carboxylic acid, sodium salt] | – | 2.9 | – | – | 16 | 160 | 3.1 | – | 18 | – | – | – | –
6 | CN1CCc2sc(C=C3C(=O)N4C(C(=O)O)=CSC34)cc2C1 (stereo not shown) [Example 17, 6-(5-Methyl-4,5,6,7-tetrahydro-thieno[3,2-c]pyridin-2-ylmethylene)-7-oxo-4-thia-1-aza-bicyclo[3.2.0]hept-2-ene-2-carboxylic acid] | – | 12 | 26 | – | 24 | 28 | – | 37.9 | – | – | – | – | –
7 | O=C(O)C1=CSC2C(=Cc3cn4c(n3)CCCCC4)C(=O)N12 (stereo not shown) [Example 19, 7-Oxo-6-(6,7,8,9-tetrahydro-5H-imidazo[1,2-a]azepin-2-ylmethylene)-4-thia-1-aza-bicyclo[3.2.0]hept-2-ene-2-carboxylic acid] | – | 4.8 | 4.6 | – | 2700 | 170 | – | 59.2 | – | – | – | – | –
8 | O=C(O)C1=CS[C@@H]2/C(=C\c3cc4n(n3)CCS(=O)(=O)C4)C(=O)N12 [Example 24, (5R),(6Z)-6-(5,5-Dioxo-4,5,6,7-tetrahydro-5λ^6-pyrazolo[5,1-c][1,4]thiazin-2-ylmethylene)-7-oxo-4-thia-1-azabicyclo[3.2.0]hept-2-ene-2-carboxylic acid, sodium salt] | – | 1.1 | 1.5 | – | 56 | – | – | – | 64 | 4 | – | – | –
9 | O=C(O)C1=CS[C@@H]2/C(=C\c3cc4n(n3)CCNC4)C(=O)N12 [Example 25, (5R),(6Z)-7-Oxo-6-(4,5,6,7-tetrahydropyrazolo[1,5-a]pyrazin-2-ylmethylene)-4-thia-1-aza-bicyclo[3.2.0]hept-2-ene-2-carboxylic acid, sodium salt] | – | 1.1 | 2.7 | – | 123 | 162 | – | – | 30 | – | – | – | –
10 | CC1(C)Cc2cc(/C=C3/C(=O)N4C(C(=O)[O-])=CS[C@H]34)nn2C1.[Na+] [Example 26, (5R)(6Z)-6-(5,5-Dimethyl-4H-1,6a-diazapentalen-2-ylmethylene)-7-oxo-4-thia-1-azabicyclo[3.2.0]hept-2-ene-2-carboxylic acid, sodium salt] | – | 0.73 | – | – | 54 | 89 | 2.3 | – | 30 | – | – | – | –
11 | O=C(O)C1=CS[C@@H]2/C(=C\c3cc4c(o3)CCC4)C(=O)N12 [Example 27, (5R),(6Z)-6-(5,6-Dihydro-4H-cyclopenta[b]furan-2-ylmethylene)-7-oxo-4-thia-1-azabicyclo[3.2.0]hept-2-ene-2-carboxylic acid, sodium salt] | – | 2 | 2 | – | 5.5 | 73 | – | – | 28 | – | – | – | –
12 | O=C([O-])C1=CS[C@@H]2/C(=C\c3cc4n(n3)CSC4)C(=O)N12.[Na+] [Example 31, (5R)(6Z)-7-Oxo-6-(4H-5-thia-1,6a-diazapentalen-2-ylmethylene)-4-thia-1-azabicyclo[3.2.0]hept-2-ene-2-carboxylic acid, sodium salt] | – | 1.4 | – | – | 56 | 110 | – | – | – | – | 1.5 | 20 | –
13 | O=C([O-])C1=CS[C@@H]2/C(=C\c3cc4n(n3)CCO4)C(=O)N12.[Na+] [Example 33, (5R)(6Z)-6-(2,3-Dihydropyrazolo[5,1-b]oxazol-6-ylmethylene)-7-oxo-4-thia-1-azabicyclo[3.2.0]hept-2-ene-2-carboxylic acid, sodium salt] | – | 1.1 | – | – | 59 | 41 | 0.85 | – | > 64 | – | – | – | –
14 | O=C(O)C1=CS[C@@H]2/C(=C\c3cc4n(n3)CCOC4)C(=O)N12 [Example 35, (5R,6Z)-6-(6,7-dihydro-4H-pyrazolo[5,1-c][1,4]oxazin-2-ylmethylene)-7-oxo-4-thia-1-azabicyclo[3.2.0]hept-2-ene-2-carboxylic acid] | – | 4.2 | 6.1 | – | – | 30 | – | – | 19 | – | – | – | 230
